Legend:
ISC-enriched organoids [1] = assay: Primary screen, 384-well 2.5-D organoid differentiation (ENR+CD, 6 days): basal lysozyme secretion (LYZ.NS); format: cell-based, murine; details: for Dose.FC.LYZ.NS / Z.LYZ.NS (standard z score) / Dose.FC.LYZ.NS (log 2 fold change): primary screen; for Dose.FC.LYZ.NS: FC vs plate median; for Z.LYZ.NS: standard z score of FC; for Dose.FC.LYZ.NS (log 2 fold change): vs plate median
From the text: (§1) High-throughput screening.

ISC-enriched organoids [2] = assay: Primary screen, 384-well 2.5-D organoid differentiation (ENR+CD, 6 days, Target Selective Inhibitor Library, vs whole-plate median): ATP (CellTiter-Glo 3D, CTG); details: for Dose.FC.CTG / Z.CTG (standard z score) / Dose.FC.CTG (log 2 fold change): primary screen; for Dose.FC.CTG: FC vs plate median; for Z.CTG: standard z score of FC; for Dose.FC.CTG (log 2 fold change): vs plate median
ISC-enriched organoids [3] = assay: Primary screen, 384-well 2.5-D organoid differentiation (ENR+CD, 6 days): carbachol-induced lysozyme secretion (LYZ.S); format: cell-based, murine; details: primary screen; for Dose.FC.LYZ.S: FC vs plate median; for Dose.FC.LYZ.S (log 2 fold change): vs plate median
From the text: as §1

Row | SMILES | Z.LYZ.NS (standard z score) (ISC-enriched organoids [1]; Dose 0.08 uM) | Dose.FC.LYZ.NS (log 2 fold change) (ISC-enriched organoids [1]; Dose 0.08 uM) | Z.LYZ.NS (standard z score) (ISC-enriched organoids [1]; Dose 0.40 uM) | Dose.FC.LYZ.NS (log 2 fold change) (ISC-enriched organoids [1]; Dose 0.40 uM) | Z.LYZ.NS (standard z score) (ISC-enriched organoids [1]; Dose 2.00 uM) | Dose.FC.LYZ.NS (log 2 fold change) (ISC-enriched organoids [1]; Dose 2.00 uM) | Z.LYZ.NS (standard z score) (ISC-enriched organoids [1]; Dose 10.00 uM) | Dose.FC.LYZ.NS (log 2 fold change) (ISC-enriched organoids [1]; Dose 10.00 uM) | Z.CTG (standard z score) (ISC-enriched organoids [2]; Dose 0.08 uM) | Dose.FC.CTG (log 2 fold change) (ISC-enriched organoids [2]; Dose 0.08 uM) | Z.CTG (standard z score) (ISC-enriched organoids [2]; Dose 0.40 uM) | Dose.FC.CTG (log 2 fold change) (ISC-enriched organoids [2]; Dose 0.40 uM) | Z.CTG (standard z score) (ISC-enriched organoids [2]; Dose 2.00 uM) | Dose.FC.CTG (log 2 fold change) (ISC-enriched organoids [2]; Dose 2.00 uM) | Z.CTG (standard z score) (ISC-enriched organoids [2]; Dose 10.00 uM) | Dose.FC.CTG (log 2 fold change) (ISC-enriched organoids [2]; Dose 10.00 uM) | Dose.FC.LYZ.S (log 2 fold change) (ISC-enriched organoids [3]; Dose 0.08 uM) | Dose.FC.LYZ.S (log 2 fold change) (ISC-enriched organoids [3]; Dose 0.40 uM) | Dose.FC.LYZ.S (log 2 fold change) (ISC-enriched organoids [3]; Dose 2.00 uM) | Dose.FC.LYZ.S (log 2 fold change) (ISC-enriched organoids [3]; Dose 10.00 uM) | other results
1 | O=C(NNc1ccccc1)c1ccncc1 [PluriSIn #1 (NSC 14613)] |  |  |  |  |  |  |  |  |  |  |  |  |  |  |  |  |  |  |  |  | Dose.FC.LYZ.NS (ISC-enriched organoids [1]; Dose 0.08 uM): 0.083 log 2 fold change; Z.LYZ.NS (ISC-enriched organoids [1]; Dose 0.08 uM): 0.720; Dose.FC.LYZ.NS (ISC-enriched organoids [1]; Dose 0.40 uM): 0.004 log 2 fold change; Z.LYZ.NS (ISC-enriched organoids [1]; Dose 0.40 uM): 0.039; Dose.FC.LYZ.NS (ISC-enriched organoids [1]; Dose 2.00 uM): −0.107 log 2 fold change; Z.LYZ.NS (ISC-enriched organoids [1]; Dose 2.00 uM): −0.929; Dose.FC.LYZ.NS (ISC-enriched organoids [1]; Dose 10.00 uM): −0.284 log 2 fold change; Z.LYZ.NS (ISC-enriched organoids [1]; Dose 10.00 uM): −2.475; Dose.FC.CTG (ISC-enriched organoids [2]; Dose 0.08 uM): −0.146 log 2 fold change; Z.CTG (ISC-enriched organoids [2]; Dose 0.08 uM): −0.349; Dose.FC.CTG (ISC-enriched organoids [2]; Dose 0.40 uM): −0.095 log 2 fold change; Z.CTG (ISC-enriched organoids [2]; Dose 0.40 uM): −0.226; Dose.FC.CTG (ISC-enriched organoids [2]; Dose 2.00 uM): −0.433 log 2 fold change; Z.CTG (ISC-enriched organoids [2]; Dose 2.00 uM): −1.035; Dose.FC.CTG (ISC-enriched organoids [2]; Dose 10.00 uM): −0.853 log 2 fold change; Z.CTG (ISC-enriched organoids [2]; Dose 10.00 uM): −2.038; Dose.FC.LYZ.S (ISC-enriched organoids [3]; Dose 0.08 uM): 0.057 log 2 fold change; Dose.FC.LYZ.S (ISC-enriched organoids [3]; Dose 0.40 uM): −0.007 log 2 fold change; Dose.FC.LYZ.S (ISC-enriched organoids [3]; Dose 2.00 uM): −0.133 log 2 fold change; Dose.FC.LYZ.S (ISC-enriched organoids [3]; Dose 10.00 uM): −0.372 log 2 fold change
2 | CC(C)(C)c1cc(NC(=O)Nc2ccc(-c3cn4c(n3)sc3cc(OCCN5CCOCC5)ccc34)cc2)no1 [Quizartinib (AC220)] | 0.836 | 0.096 | 0.341 | 0.039 | −0.452 | −0.052 | −1.505 | −0.173 | 0.838 | 0.351 | 0.355 | 0.149 | −0.841 | −0.352 | −1.539 | −0.644 | 0.154 | 0.083 | −0.077 | −0.200 | 
3 | O=C(NCc1cccc(O)c1)Nc1nc(-c2ccncc2)cs1 [RKI-1447] | −0.055 | −0.006 | −0.803 | −0.092 | −0.077 | −0.009 | −1.594 | −0.183 | −0.948 | −0.397 | −0.441 | −0.184 | −0.540 | −0.226 | −0.816 | −0.342 | −0.056 | −0.064 | −0.017 | −0.297 | 

From patent US20230398130A1, “METHODS AND COMPOSITIONS FOR DIFFERENTIATING STEM CELLS” (Massachusetts Institute of Technology, priority 2020, published 2023)
